From patent publication US11472803B2, “7-substituted 1-aryl-naphthyridine-3-carboxylic acid amides and use thereof” (Bayer Aktiengesellschaft, priority 2016, dated 2022)
Counter-ions that a name gives are not always drawn.

Biological target: T1, human M2 receptor (Homo sapiens, UniProt P08172)
T1 construct: expressed in transfected cells; host or cells: CHO-DUKX (CHO-DUKX-M2-GIRK)
T1 sequence (P08172 1-466): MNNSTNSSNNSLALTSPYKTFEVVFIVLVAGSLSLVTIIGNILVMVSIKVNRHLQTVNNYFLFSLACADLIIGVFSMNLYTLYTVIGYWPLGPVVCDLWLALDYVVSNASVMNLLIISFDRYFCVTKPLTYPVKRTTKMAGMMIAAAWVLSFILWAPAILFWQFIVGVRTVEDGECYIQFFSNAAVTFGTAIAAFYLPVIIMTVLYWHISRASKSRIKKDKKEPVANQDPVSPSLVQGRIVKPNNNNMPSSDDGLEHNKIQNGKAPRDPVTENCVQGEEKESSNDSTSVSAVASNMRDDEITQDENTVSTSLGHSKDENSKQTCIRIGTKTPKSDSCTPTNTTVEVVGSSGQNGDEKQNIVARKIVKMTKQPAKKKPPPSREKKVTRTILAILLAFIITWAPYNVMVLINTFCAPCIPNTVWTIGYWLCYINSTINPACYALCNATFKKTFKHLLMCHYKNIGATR
Assay: Functional M2-GIRK1/4 activation test: allosteric potency (EC50) and efficiency at EC20 acetylcholine
Assay type: cell-based
Conditions: CHO-DUKX-M2-GIRK cells; for EC50: voltage-sensitive dye, acetylcholine at EC20, in some cases mean of two or more determinations; for Emax: boosting of the acetylcholine effect at EC20 acetylcholine concentration
In short: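 Positive allosteric modulation measured as boosting of an EC20 acetylcholine response: hyperpolarization via GIRK1/4 in CHO-DUKX-M2-GIRK cells, monitored by membrane-potential dye fluorescence over 60 s after agonist, compound preadded. Hill-function fit gives EC50 and efficiency.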

EC50 | Emax | SMILES
12 nM | 100% | C[C@@H](NC(=O)c1cn(-c2c(F)cc(F)cc2Cl)c2nc(N3C[C@@H](O)[C@H](O)C3)c(F)cc2c1=O)C1CC1 [Example 44, 1-(2-chloro-4,6-difluorophenyl)-N-[(1R)-1-cyclopropylethyl]-7-[(3R,4R)-3,4-dihydroxypyrrolidin-1-yl]-6-fluoro-4-oxo-1,4-dihydro-1,8-naphthyridine-3-carboxamide]
25 nM | 96% | CN(CCO)c1nc2c(cc1F)c(=O)c(C(=O)N[C@@H](C1CC1)C(F)(F)F)cn2-c1c(F)cc(F)cc1F [Example 55, N-[(1S)-1-Cyclopropyl-2,2,2-trifluoroethyl]-6-fluoro-7-[(2-hydroxyethyl)(methyl)amino]-4-oxo-1-(2,4,6-trifluorophenyl)-1,4-dihydro-1,8-naphthyridine-3-carboxamide]
35 nM | 100% | CC1(O)CN(c2nc3c(cc2F)c(=O)c(C(=O)NC(C2CC2)C2CC2)cn3-c2ncc(F)cc2F)C1 [Example 56, N-(Dicyclopropylmethyl)-1-(3,5-difluoropyridin-2-yl)-6-fluoro-7-(3-hydroxy-3-methylazetidin-1-yl)-4-oxo-1,4-dihydro-1,8-naphthyridine-3-carboxamide]
78.5 nM | 89% | CC[C@H](NC(=O)c1cn(-c2c(F)cc(F)cc2F)c2nc(N3CCCC[C@H]3CO)c(F)cc2c1=O)C(F)(F)F [Example 57, 6-Fluoro-7-[(2S)-2-(hydroxymethyl)piperidin-1-yl]-4-oxo-N-[(2S)-1,1,1-trifluorobutan-2-yl]-1-(2,4,6-trifluorophenyl)-1,4-dihydro-1,8-naphthyridine-3-carboxamide]
104 nM | 90% | O=C(N[C@@H](C1CC1)C(F)(F)F)c1cn(-c2c(F)cc(F)cc2F)c2nc(N3CCCC[C@H]3CO)c(F)cc2c1=O [Example 58, N-[(1S)-1-Cyclopropyl-2,2,2-trifluoroethyl]-6-fluoro-7-[(2S)-2-(hydroxymethyl)piperidin-1-yl]-4-oxo-1-(2,4,6-trifluorophenyl)-1,4-dihydro-1,8-naphthyridine-3-carboxamide]
91.5 nM | 97% | O=C(N[C@@H](C1CC1)C(F)(F)F)c1cn(-c2c(F)cc(F)cc2F)c2nc(N3C[C@@H](O)CC3=O)c(F)cc2c1=O [Example 59, N-[(1S)-1-Cyclopropyl-2,2,2-trifluoroethyl]-6-fluoro-7-[(4S)-4-hydroxy-2-oxopyrrolidin-1-yl]-4-oxo-1-(2,4,6-trifluorophenyl)-1,4-dihydro-1,8-naphthyridine-3-carboxamide]
3.6 nM | 100% | CN(C)c1nc2c(cc1F)c(=O)c(C(=O)NC(C)(C)C)cn2-c1c(F)cc(F)cc1F [Example 60, N-tert-Butyl-7-(dimethylamino)-6-fluoro-4-oxo-1-(2,4,6-trifluorophenyl)-1,4-dihydro-1,8-naphthyridine-3-carboxamide]
2.2 nM | 94% | CCC(C)(C)NC(=O)c1cn(-c2c(F)cc(F)cc2F)c2nc(N(C)C)c(F)cc2c1=O [Example 61, 7-(Dimethylamino)-6-fluoro-N-(2-methylbutan-2-yl)-4-oxo-1-(2,4,6-trifluorophenyl)-1,4-dihydro-1,8-naphthyridine-3-carboxamide]
4.1 nM | 88% | CN(C)c1nc2c(cc1F)c(=O)c(C(=O)NC(C)(C)C(F)(F)F)cn2-c1c(F)cc(F)cc1F [Example 62, 7-(Dimethylamino)-6-fluoro-4-oxo-N-(1,1,1-trifluoro-2-methylpropan-2-yl)-1-(2,4,6-trifluoro-phenyl)-1,4-dihydro-1,8-naphthyridine-3-carboxamide]
3.9 nM | 92% | CN(C)c1nc2c(cc1F)c(=O)c(C(=O)NC(C)(C)CC(F)(F)F)cn2-c1c(F)cc(F)cc1F [Example 63, 7-(Dimethylamino)-6-fluoro-4-oxo-N-(4,4,4-trifluoro-2-methylbutan-2-yl)-1-(2,4,6-trifluoro-phenyl)-1,4-dihydro-1,8-naphthyridine-3-carboxamide]
12 nM | 96% | C[C@H](O)CN(C)c1nc2c(cc1F)c(=O)c(C(=O)N[C@@H](C1CC1)C(F)(F)F)cn2-c1c(F)cc(F)cc1F [Example 64, N-[(1S)-1-Cyclopropyl-2,2,2-trifluoroethyl]-6-fluoro-7-{[(2S)-2-hydroxypropyl](methyl)amino}-4-oxo-1-(2,4,6-trifluorophenyl)-1,4-dihydro-1,8-naphthyridine-3-carboxamide]
32 nM | 92% | O=C(N[C@@H](C1CC1)C(F)(F)F)c1cn(-c2c(F)cc(F)cc2Cl)c2nc(N3CC4(COC4)C3)c(F)cc2c1=O [Example 68, 1-(2-Chloro-4,6-difluorophenyl)-N-[(1S)-1-cyclopropyl-2,2,2-trifluoroethyl]-6-fluoro-7-(2-oxa-6-azaspiro[3.3]hept-6-yl)-4-oxo-1,4-dihydro-1,8-naphthyridine-3-carboxamide trifluoroacetate]
5.9 nM | 100% | O=C(N[C@@H](C1CC1)C(F)(F)F)c1cn(-c2c(F)cc(F)cc2Cl)c2nc(N3CC(CO)(CO)C3)c(F)cc2c1=O [Example 69, 7-[3,3-Bis(hydroxymethyl)azetidin-1-yl]-1-(2-chloro-4,6-difluorophenyl)-N-[(1S)-1-cyclopropyl-2,2,2-trifluoroethyl]-6-fluoro-4-oxo-1,4-dihydro-1,8-naphthyridine-3-carboxamide]
11 nM | 89% | C[C@H](O)CN(C)c1nc2c(cc1F)c(=O)c(C(=O)N[C@@H](C1CC1)C(F)(F)F)cn2-c1c(F)cc(F)cc1Cl [Example 72, 1-(2-Chloro-4,6-difluorophenyl)-N-[(1S)-1-cyclopropyl-2,2,2-trifluoroethyl]-6-fluoro-7-{[(2S)-2-hydroxypropyl](methyl)amino}-4-oxo-1,4-dihydro-1,8-naphthyridine-3-carboxamide]
2.7 nM | 94% | CCC(C)(C)NC(=O)c1cn(-c2c(F)cc(F)cc2Cl)c2nc(N3C[C@@H](O)[C@H](O)C3)c(F)cc2c1=O [Example 73, 1-(2-Chloro-4,6-difluorophenyl)-7-[(3R,4R)-3,4-dihydroxypyrrolidin-1-yl]-6-fluoro-N-(2-methylbutan-2-yl)-4-oxo-1,4-dihydro-1,8-naphthyridine-3-carboxamide]
3.9 nM | 95% | CC(C)(C)NC(=O)c1cn(-c2c(F)cc(F)cc2Cl)c2nc(N3C[C@@H](O)[C@H](O)C3)c(F)cc2c1=O [Example 74, N-tert-Butyl-1-(2-chloro-4,6-difluorophenyl)-7-[(3R,4R)-3,4-dihydroxypyrrolidin-1-yl]-6-fluoro-4-oxo-1,4-dihydro-1,8-naphthyridine-3-carboxamide]
87 nM | 100% | CCC(C)(C)NC(=O)c1cn(-c2ncc(F)cc2F)c2nc(N3C[C@@H](O)[C@H](O)C3)c(F)cc2c1=O [Example 75, 1-(3,5-Difluoropyridin-2-yl)-7-[(3R,4R)-3,4-dihydroxypyrrolidin-1-yl]-6-fluoro-N-(2-methyl-butan-2-yl)-4-oxo-1,4-dihydro-1,8-naphthyridine-3-carboxamide]
29 nM | 100% | CCC(C)(CC)NC(=O)c1cn(-c2ncc(F)cc2F)c2nc(N3C[C@@H](O)[C@H](O)C3)c(F)cc2c1=O [Example 76, 1-(3,5-Difluoropyridin-2-yl)-7-[(3R,4R)-3,4-dihydroxypyrrolidin-1-yl]-6-fluoro-N-(3-methylpentan-3-yl)-4-oxo-1,4-dihydro-1,8-naphthyridine-3-carboxamide]
1.6 nM | 100% | CCC(CC)(CC)NC(=O)c1cn(-c2c(F)cc(F)cc2F)c2nc(N3C[C@@H](O)[C@@H](O)C3)c(F)cc2c1=O [Example 77, 7-[(3R,4S)-3,4-Dihydroxypyrrolidin-1-yl]-N-(3-ethylpentan-3-yl)-6-fluoro-4-oxo-1-(2,4,6-tri-fluorophenyl)-1,4-dihydro-1,8-naphthyridine-3-carboxamide]
2.8 nM | 100% | CCC(C)(CC)NC(=O)c1cn(-c2c(F)cc(F)cc2F)c2nc(N3C[C@@H](O)[C@@H](O)C3)c(F)cc2c1=O [Example 78, 7-[(3R,4S)-3,4-Dihydroxypyrrolidin-1-yl]-6-fluoro-N-(3-methylpentan-3-yl)-4-oxo-1-(2,4,6-trifluorophenyl)-1,4-dihydro-1,8-naphthyridine-3-carboxamide]
9.3 nM | 99% | CCC(C)(C)NC(=O)c1cn(-c2c(F)cc(F)cc2F)c2nc(N3C[C@@H](O)[C@@H](O)C3)c(F)cc2c1=O [Example 79, 7-[(3R,4S)-3,4-Dihydroxypyrrolidin-1-yl]-6-fluoro-N-(2-methylbutan-2-yl)-4-oxo-1-(2,4,6-tri-fluorophenyl)-1,4-dihydro-1,8-naphthyridine-3-carboxamide]
24 nM | 100% | CC(C)(C)NC(=O)c1cn(-c2c(F)cc(F)cc2F)c2nc(N3C[C@@H](O)[C@@H](O)C3)c(F)cc2c1=O [Example 80, N-tert-Butyl-7-[(3R,4S)-3,4-dihydroxypyrrolidin-1-yl]-6-fluoro-4-oxo-1-(2,4,6-trifluoro-phenyl)-1,4-dihydro-1,8-naphthyridine-3-carboxamide]
